Measured values: ChEMBL document CHEMBL1201862, “PubChem BioAssay data set” (2004)
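Method: 48-hour compound exposure of cells in 96-well plates, five concentrations, linear interpolation of endpoints. GI50 is the concentration that inhibits growth by half.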 Activity calls are given as the source filed them. Rule as the data show it: active = GI50 up to about 1.1 µM and inactive = higher.

What was measured:
Assay in all cases: growth of human tumour cells (NCI), 48 h
[1] = test system: 786-0
[2] = test system: A498
[3] = test system: A549
[4] = test system: ACHN
[5] = test system: CAKI-1
[6] = test system: COLO 205
[7] = test system: DLD-1
[8] = test system: DMS-114
[9] = test system: DMS-273
[10] = test system: EKVX
[11] = test system: HCT-116
[12] = test system: HCT-15
[13] = test system: HL-60
[14] = test system: HOP-18
[15] = test system: HOP-62
[16] = test system: HOP-92
[17] = test system: HT-29
[18] = test system: IGROV-1
[19] = test system: K562
[20] = test system: KM-20L2
[21] = test system: KM12
[22] = test system: LXFL 529
[23] = test system: M14
[24] = test system: M19-MEL
[25] = test system: MOLT-4
[26] = test system: Malme-3M
[27] = test system: NCI-H226
[28] = test system: NCI-H23
[29] = test system: NCI-H460
[30] = test system: NCI-H522
[31] = test system: OVCAR-3
[32] = test system: OVCAR-4
[33] = test system: OVCAR-5
[34] = test system: OVCAR-8
[35] = test system: RPMI-8226
[36] = test system: RXF 631
[37] = test system: SF-295
[38] = test system: SF-539
[39] = test system: SK-MEL-28
[40] = test system: SK-MEL-2
[41] = test system: SK-MEL-5
[42] = test system: SK-OV-3
[43] = test system: SN12C
[44] = test system: SNB-19
[45] = test system: SNB-75
[46] = test system: SNB-78
[47] = test system: SR
[48] = test system: SW-620
[49] = test system: U-251
[50] = test system: UACC-257
[51] = test system: UO-31
[52] = test system: CCRF-CEM
[53] = test system: HCC 2998
[54] = test system: LOX IMVI
[55] = test system: RXF 393
[56] = test system: SF-268
[57] = test system: TK-10
[58] = test system: UACC-62
[59] = test system: XF498

Cc1c(C(=O)/C=C/c2ccccc2[N+](=O)[O-])[n+]([O-])c2ccccc2[n+]1[O-]
GI50 [1]: 5.53 µM (inactive)
GI50 [2]: 13.3 µM (inactive)
GI50 [3]: 12.5 µM (inactive)
GI50 [4]: 10.6 µM (inactive)
GI50 [5]: 3.61 µM (inactive)
GI50 [6]: 3.13 µM (inactive)
GI50 [7]: 3.53 µM (inactive)
GI50 [8]: 5.55 µM (inactive)
GI50 [9]: 3.61 µM (inactive)
GI50 [10]: 14.4 µM (inactive)
GI50 [11]: 3.96 µM (inactive)
GI50 [12]: 3.3 µM
GI50 [13]: 1.58 µM (inactive)
GI50 [14]: 15.4 µM (inactive)
GI50 [15]: 18.2 µM (inactive)
GI50 [16]: 13.6 µM (inactive)
GI50 [17]: 8.57 µM (inactive)
GI50 [18]: 10.6 µM (inactive)
GI50 [19]: 3.39 µM (inactive)
GI50 [20]: 5.61 µM (inactive)
GI50 [21]: 10.3 µM (inactive)
GI50 [22]: 4.89 µM (inactive)
GI50 [23]: 11 µM (inactive)
GI50 [24]: 5.97 µM (inactive)
GI50 [25]: 5.5 µM (inactive)
GI50 [26]: 13.3 µM (inactive)
GI50 [27]: 11.4 µM (inactive)
GI50 [28]: 4.63 µM (inactive)
GI50 [29]: 4.32 µM (inactive)
GI50 [30]: 3.94 µM (inactive)
GI50 [31]: 3.76 µM (inactive)
GI50 [32]: 9.64 µM (inactive)
GI50 [33]: 13.7 µM (inactive)
GI50 [34]: 3.9 µM (inactive)
GI50 [35]: 2.96 µM (inactive)
GI50 [36]: 4.34 µM (inactive)
GI50 [37]: 7.5 µM (inactive)
GI50 [38]: 3.78 µM (inactive)
GI50 [39]: 11.7 µM (inactive)
GI50 [40]: 11.3 µM (inactive)
GI50 [41]: 12 µM (inactive)
GI50 [42]: 17.9 µM (inactive)
GI50 [43]: 6 µM (inactive)
GI50 [44]: 19.1 µM (inactive)
GI50 [45]: 13.2 µM (inactive)
GI50 [46]: 12.3 µM (inactive)
GI50 [47]: 4.34 µM (inactive)
GI50 [48]: 5.13 µM (inactive)
GI50 [49]: 15.2 µM (inactive)
GI50 [50]: 7.53 µM (inactive)
GI50 [51]: 18.8 µM (inactive)

CCc1ccccc1NC(=O)C(=O)C(C#N)c1ccccc1Cl (centres undefined)
GI50 [1]: > 100 µM (inactive)
GI50 [2]: 35.5 µM (inactive)
GI50 [3]: > 100 µM (inactive)
GI50 [4]: > 100 µM (inactive)
GI50 [52]: > 100 µM (inactive)
GI50 [6]: > 100 µM (inactive)
GI50 [7]: > 100 µM (inactive)
GI50 [8]: > 100 µM (inactive)
GI50 [10]: > 100 µM (inactive)
GI50 [53]: > 100 µM (inactive)
GI50 [11]: > 100 µM (inactive)
GI50 [13]: > 100 µM (inactive)
GI50 [14]: > 100 µM (inactive)
GI50 [15]: > 100 µM (inactive)
GI50 [16]: > 100 µM (inactive)
GI50 [17]: > 100 µM (inactive)
GI50 [18]: > 100 µM (inactive)
GI50 [20]: > 100 µM (inactive)
GI50 [21]: > 100 µM (inactive)
GI50 [54]: 3.36 µM (inactive)
GI50 [22]: > 100 µM (inactive)
GI50 [23]: > 100 µM (inactive)
GI50 [24]: > 100 µM (inactive)
GI50 [25]: > 100 µM (inactive)
GI50 [26]: > 100 µM (inactive)
GI50 [27]: > 100 µM (inactive)
GI50 [28]: > 100 µM (inactive)
GI50 [29]: 16.9 µM (inactive)
GI50 [31]: > 100 µM (inactive)
GI50 [32]: > 100 µM (inactive)
GI50 [33]: > 100 µM (inactive)
GI50 [34]: > 100 µM (inactive)
GI50 [35]: > 100 µM (inactive)
GI50 [55]: > 100 µM (inactive)
GI50 [36]: > 100 µM (inactive)
GI50 [56]: > 100 µM (inactive)
GI50 [37]: > 100 µM (inactive)
GI50 [39]: > 100 µM (inactive)
GI50 [40]: > 100 µM (inactive)
GI50 [41]: > 100 µM (inactive)
GI50 [43]: > 100 µM (inactive)
GI50 [44]: > 100 µM (inactive)
GI50 [45]: > 100 µM (inactive)
GI50 [46]: > 100 µM (inactive)
GI50 [48]: > 100 µM (inactive)
GI50 [57]: 2.55 µM (inactive)
GI50 [49]: > 100 µM (inactive)
GI50 [50]: > 100 µM (inactive)
GI50 [58]: > 100 µM (inactive)
GI50 [51]: > 100 µM (inactive)
GI50 [59]: > 100 µM (inactive)

NCCNc1cccc2ccccc12
GI50 [1]: > 100 µM (inactive)
GI50 [2]: > 100 µM (inactive)
GI50 [3]: > 100 µM (inactive)
GI50 [4]: > 100 µM (inactive)
GI50 [5]: > 100 µM (inactive)
GI50 [6]: > 100 µM (inactive)
GI50 [7]: > 100 µM (inactive)
GI50 [8]: > 100 µM (inactive)
GI50 [9]: > 100 µM (inactive)
GI50 [10]: > 100 µM (inactive)
GI50 [53]: > 100 µM (inactive)
GI50 [11]: > 100 µM (inactive)
GI50 [12]: > 100 µM
GI50 [13]: > 100 µM (inactive)
GI50 [14]: > 100 µM (inactive)
GI50 [15]: > 100 µM (inactive)
GI50 [16]: > 100 µM (inactive)
GI50 [17]: > 100 µM (inactive)
GI50 [18]: > 100 µM (inactive)
GI50 [20]: > 100 µM (inactive)
GI50 [21]: > 100 µM (inactive)
GI50 [54]: > 100 µM (inactive)
GI50 [22]: > 100 µM (inactive)
GI50 [23]: > 100 µM (inactive)
GI50 [24]: > 100 µM (inactive)
GI50 [26]: > 100 µM (inactive)
GI50 [27]: > 100 µM (inactive)
GI50 [28]: > 100 µM (inactive)
GI50 [29]: > 100 µM (inactive)
GI50 [30]: > 100 µM (inactive)
GI50 [31]: > 100 µM (inactive)
GI50 [32]: > 100 µM (inactive)
GI50 [33]: > 100 µM (inactive)
GI50 [34]: > 100 µM (inactive)
GI50 [35]: > 100 µM (inactive)
GI50 [55]: > 100 µM (inactive)
GI50 [36]: > 100 µM (inactive)
GI50 [56]: > 100 µM (inactive)
GI50 [37]: > 100 µM (inactive)
GI50 [38]: > 100 µM (inactive)
GI50 [40]: > 100 µM (inactive)
GI50 [42]: > 100 µM (inactive)
GI50 [43]: > 100 µM (inactive)
GI50 [44]: > 100 µM (inactive)
GI50 [46]: > 100 µM (inactive)
GI50 [47]: > 100 µM (inactive)
GI50 [48]: > 100 µM (inactive)
GI50 [57]: > 100 µM (inactive)
GI50 [49]: > 100 µM (inactive)
GI50 [50]: > 100 µM (inactive)
GI50 [58]: > 100 µM (inactive)
GI50 [51]: > 100 µM (inactive)
